Data from the supplement of paper PMC10307832.

Tests used:
Test in all cases: relative viability (nuclei count vs DMSO), 5 days (fraction); higher = more cells survive
Metformin + Pemetrexed = compound: CN(C)C(=N)NC(=N)N [Metformin] + Nc1nc2[nH]cc(CCc3ccc(C(=O)N[C@@H](CCC(=O)O)C(=O)O)cc3)c2c(=O)[nH]1 [Pemetrexed] (partner 0.2 µM)
In short: (§1)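 For relative viability, nuclei counts in treated wells were divided by those in vehicle wells. Lung cancer cell lines had been pin-tool dosed in 1536-well plates the day after seeding and cultured for 5 days, then fixed and stained in one step (final 0.05% Triton X-100, 1% formaldehyde, 1 ug/ml Hoechst) and imaged at 4×. Doses were one drug alone or a fixed anchor-drug dose plus five library-drug doses (not always all listed) in √10 steps, and values are duplicate-plate medians.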

Apatinib + Decitabine = compound: N#CC1(c2ccc(NC(=O)c3cccnc3NCc3ccncc3)cc2)CCCC1 [Apatinib] + Nc1ncn([C@H]2C[C@H](O)[C@@H](CO)O2)c(=O)n1 [Decitabine] (partner 2 µM)
In short: as §1

Apatinib + Alpelisib = compound: N#CC1(c2ccc(NC(=O)c3cccnc3NCc3ccncc3)cc2)CCCC1 [Apatinib] + Cc1nc(NC(=O)N2CCC[C@H]2C(N)=O)sc1-c1ccnc(C(C)(C)C(F)(F)F)c1 [Alpelisib] (partner 2 µM)
In short: as §1

Metformin + Palbociclib = compound: CN(C)C(=N)NC(=N)N [Metformin] + CC(=O)c1c(C)c2cnc(Nc3ccc(N4CCNCC4)cn3)nc2n(C2CCCC2)c1=O [Palbociclib] (partner 0.5 µM)
In short: as §1

Row | Cell Line | relative viability (Metformin + Pemetrexed; first compound 10 µM) | relative viability (Metformin + Pemetrexed; first compound 31.62 µM) | relative viability (Metformin + Pemetrexed; first compound 100 µM) | relative viability (Metformin + Pemetrexed; first compound 316.23 µM) | relative viability (Metformin + Pemetrexed; first compound 1000 µM) | relative viability (Apatinib + Decitabine; first compound 0.08 µM) | relative viability (Apatinib + Decitabine; first compound 0.253 µM) | relative viability (Apatinib + Decitabine; first compound 0.8 µM) | relative viability (Apatinib + Decitabine; first compound 2.53 µM) | relative viability (Apatinib + Decitabine; first compound 8 µM) | relative viability (Apatinib + Alpelisib; first compound 0.08 µM) | relative viability (Apatinib + Alpelisib; first compound 0.253 µM) | relative viability (Apatinib + Alpelisib; first compound 0.8 µM) | relative viability (Apatinib + Alpelisib; first compound 2.53 µM) | relative viability (Apatinib + Alpelisib; first compound 8 µM) | relative viability (Metformin + Palbociclib; first compound 10 µM) | relative viability (Metformin + Palbociclib; first compound 31.62 µM) | relative viability (Metformin + Palbociclib; first compound 100 µM) | relative viability (Metformin + Palbociclib; first compound 316.23 µM) | relative viability (Metformin + Palbociclib; first compound 1000 µM)
1 | NCI-H2085 | 0.917 | 0.815 | 0.904 | 0.881 | 0.955 | 0.592 | 0.573 | 0.582 | 0.587 | 0.712 | 1.05 | 0.931 | 0.931 | 0.858 | 0.792 | 0.475 | 0.447 | 0.469 | 0.435 | 0.453
2 | LC-2-ad |  | 0.313 | 0.271 | 0.263 | 0.25 | 0.862 | 0.776 | 0.792 | 0.668 | 0.698 | 0.9 | 0.798 | 0.802 | 0.824 | 0.652 |  | 0.341 | 0.313 | 0.27 | 0.347
3 | NCI-H23 | 0.679 | 0.852 | 0.652 | 0.586 | 0.79 | 0.32 | 0.333 | 0.304 | 0.332 | 0.475 | 0.665 | 0.911 | 0.595 | 0.627 | 0.558 | 0.583 | 0.563 | 0.495 | 0.508 | 0.553
4 | NCI-H647 | 0.127 | 0.137 | 0.16 | 0.146 | 0.148 | 0.376 | 0.413 | 0.478 | 0.414 | 0.583 | 1.39 | 1.21 | 1.1 | 0.799 | 0.706 | 0.222 | 0.436 | 0.555 | 0.382 | 0.417
5 | LXF-289 | 0.74 | 0.83 | 0.756 | 0.806 | 0.784 | 0.4 | 0.386 | 0.391 | 0.565 | 0.594 | 1.13 | 1.06 | 1.03 | 0.998 | 0.964 | 0.516 | 0.557 | 0.568 | 0.535 | 0.564
6 | PC-3 [JPC-3] | 1.12 | 1.08 |  | 0.897 | 0.705 |  | 0.869 | 0.763 | 0.908 | 1.04 | 1 | 0.996 | 0.989 | 0.938 | 0.888 | 0.444 | 0.466 |  | 0.46 | 0.503
7 | UMC-11 | 0.907 | 0.697 | 0.81 | 0.791 | 0.855 | 0.711 | 0.64 | 0.575 | 0.714 | 0.629 | 1.05 | 0.834 | 0.848 | 0.959 | 0.885 | 0.336 | 0.349 | 0.333 | 0.311 | 0.341
8 | H3255 | 0.55 | 0.556 | 0.567 | 0.5 | 0.564 | 0.707 | 0.553 | 0.578 | 0.542 | 0.517 | 0.665 | 0.674 | 0.569 | 0.614 | 0.537 | 0.309 | 0.35 | 0.307 | 0.309 | 0.321
9 | NCI-H2170 | 0.238 | 0.281 | 0.264 | 0.266 | 0.267 | 0.476 | 0.494 | 0.461 | 0.518 | 0.508 | 0.884 | 0.776 | 0.8 | 0.743 | 0.706 | 0.334 | 0.389 | 0.386 | 0.354 | 0.391
10 | NCI-H1651 | 0.445 | 0.62 | 0.608 | 0.53 | 0.599 | 0.609 | 0.53 | 0.611 | 0.593 | 0.41 | 1.03 | 1.11 | 0.786 | 0.851 | 0.83 | 0.556 | 0.681 | 0.652 | 0.519 | 0.605
11 | SK-MES-1 | 0.532 | 0.721 | 0.805 | 0.662 | 0.708 | 0.404 | 0.36 | 0.488 | 0.975 | 0.903 | 0.825 | 0.928 | 0.822 | 0.929 | 0.658 | 0.248 | 0.205 | 0.266 | 0.204 | 0.232
12 | NCI-H1355 | 0.942 | 1.02 | 1.02 | 1 | 0.94 | 0.35 | 0.349 | 0.39 | 0.367 | 0.447 | 0.884 | 0.823 | 0.816 | 0.804 | 0.67 | 0.341 | 0.36 | 0.382 | 0.358 | 0.383
13 | HOP-62 | 0.239 | 0.336 | 0.276 | 0.215 | 0.321 | 0.221 | 0.212 | 0.2 | 0.428 | 0.519 | 0.727 |  | 1.15 | 0.801 | 0.713 | 0.372 | 0.405 | 0.358 | 0.387 | 0.374
14 | HCC-366 | 0.13 | 0.21 | 0.139 | 0.162 | 0.158 | 0.395 | 0.365 | 0.309 | 0.353 | 0.432 | 0.417 | 0.46 | 0.4 | 0.308 | 0.265 | 0.342 | 0.376 | 0.309 | 0.31 | 0.334
